The text below walks through data of patent publication US4895852A, “Antitumor alkaloids” (Harbor Branch Oceanographic Institution, Inc., priority 1987, dated 1990).

The test concerns P388 mouse leukemia cells. In words: P388 mouse leukemia cell assay. The format is cell-based. The note with it: for minimal effective concentration: P388, 48 h, summary sentence on Table 1, mouse leukemia cells, read-out: good antitumor activity at concentrations of at least (against mouse leukemia cells); for IC50: P388 mouse leukemia cells, 48 hours, 37°, 10% CO2. Here is the method: P388 mouse leukemia cells are grown in Dulbecco MEM medium with 10% horse serum, 4mM glutamine, and 20ug/ml gentamycin (Biologos, Inc.). Cells are incubated in 10% CO2 and subcultured 2 times per week.
1. Add compound to each well of a 24-well plate or tube and allow solvent to evaporate to dryness.
2. Add 2ml (1.2×10^5) cells to each well or tube and mix.
3. Incubate in 10% CO2 , at 37° for 48 hours.
4. Read platees with an inverted microscope, scoring activity from 1+ to 4+ as follows: ND (not detectable), >90%; 1+, 75-90%; 2+, 50-74%; 3+, 25-49%; 4+, <25% of control growth. Cell counts are performed on each tube and results are reported as percent of control. Alternatively, scoring may be expressed as IC50 which represents the minimum concentration of the composition required to inhibit 50% of the cell growth on the plate. […]

Values after ≈ are worked out from the molar mass of the structure shown.

A word on the IC50: it is the concentration that inhibits the measured activity by half. A high value points to weaker potency. Take `O=C1CCCN2C(CC1)CC13CN4CCCCC=CCCC(O)(C=C(c5nccc6c5[nH]c5ccccc56)C1CC4)C23` (stereo not shown) [Manzamine E]: the minimal effective concentration was no less than 5 µg/mL and 5 µg/mL (≈ 8.85 µM) corresponded to half-maximal inhibition (IC50).

Consider `O=C1CCCN2[C@@H](CC1)C[C@]13CN4CCCC/C=C\CC[C@](O)(C=C(c5nccc6c5[nH]c5c(O)cccc56)C1CC4)[C@H]23` (stereo partly shown) [Manzamine F], for which the minimal effective concentration is no less than 5 µg/mL and the half-maximal inhibitory concentration (IC50) worked out at 5 µg/mL (≈ 8.61 µM).
